Source: patent US20080254152A1, “Methods for Reducing the Effects of Stress on Skin Condition” (priority 2003, published 2008)

What was measured:
[1] = tested on: IL-6 expression in neonatal-derived human dermal fibroblasts; experiment: IL-6 in neonatal-derived human dermal fibroblasts after chronic dexamethasone and PMA; type: cell-based; details: GC-treated neonatal fibroblasts after PMA; T6 and T24; data not shown
Procedure: The IL-6 protein concentration of each tissue culture supernatant was assayed using the QuantiGlo Q6000 Human IL-6 assay (R&D Systems) according to the manufacturer's instructions.
Six IL-6 standards were prepared in calibrator diluent at concentrations ranging from 0 to 3000 pg/ml. 50 μl of assay diluent and 150 μl of tissue culture supernatant or standard was added to duplicate wells. The plate was incubated at room temperature for 2 hours on a horizontal orbital plate shaker before being washed four times with wash buffer. 200 μl of IL-6 conjugate was added to each well and the plate incubated at room temperature for 3 hours on a horizontal orbital plate shaker (˜500 rpm). The plate was washed as before. […] The relative light unit (RLU) of each well was determined using a luminometer set with 1 minute lag time, 1 second/well read time, summation mode and automatic gain on.
A standard curve was plotted of mean RLU versus IL-6 concentration and the line of best fit calculated by regression analysis. […]
In this study, to understand better the effect of chronic stress on dermal matrix remodelling in the skin, we have therefore measured changes in markers of dermal matrix degradation (MMP-1) and dermal matrix synthesis (Procollagen I) in chronically glucocorticoid-treated primary human dermal fibroblasts, following acute stress with PMA. […]

[2] = tested on: MMP-1 expression in human neonatal dermal fibroblast cells; experiment: Active MMP-1 in neonatal-derived human dermal fibroblasts after chronic dexamethasone and PMA; type: cell-based; details: for Suppression of MMP-1 synthesis and secretion vs control, untreated cells: chronic 1 μM dexamethasone 5 days then 1 μM PMA, neonatal fibroblasts
Procedure: In this study, to understand better the effect of chronic stress on dermal matrix remodelling in the skin, we have therefore measured changes in markers of dermal matrix degradation (MMP-1) and dermal matrix synthesis (Procollagen I) in chronically glucocorticoid-treated primary human dermal fibroblasts, following acute stress with PMA. The experimental approach is similar to that described in example 1 except that the cells tested are dermal fibroblasts and cells are assayed for expression of procollagen-1, MMP-1 and MMP-9 expression.
Primary human dermal fibroblast cells were cultured and passaged in DMEM (Gibco) supplemented with 10% FBS (foetal bovine serum). Cells were routinely plated out in 6-well tissue culture dishes, at a seeding density of ˜5000 cells/cm^2 in 2 ml complete medium/well for 24 hours, and incubated at 37° C. in 5% CO2. Media was removed and cells grown in DMEM & 1% FBS, 24 hours prior to treatments.
Pre-treatment and test solutions were prepared in DMEM containing low serum (1% FBS). […] Following this, the cells were oxidatively stressed for 24 hours with 1 μM PMA (Sigma P8139).
MMP-1 and MMP-9 protein in each cell supernatant was estimated using the Human active MMP-1 and MMP-9 Fluorokine enzyme kit (R&D Systems F1M00 and F9M00, respectively), according to the manufacturer's instructions.
Six MMP-1 and MMP-9 standards were prepared in calibrator diluent at concentrations ranging from 0.39 to 12.5 ng/ml and 0.25 to 16 ng/ml, respectively. 100 μl of assay diluent and 150 μl of tissue culture supernatant or standard was added to duplicate wells. The plate was incubated at room temperature for 3 hours on a horizontal orbital plate shaker before being washed four times with wash buffer. 200 μl of APMA was added to each well and the plate incubated at 37° C. for 2 hours in a humidified environment and protected from the light. The plate was washed as before. Each well received 200 μl of substrate solution and the plate incubated at 37° C. for 17-20 hours in a humidified environment and protected from the light. The relative fluorescence unit (RFU) of each well was determined using a fluorescence plate set with 1×20 mS integration time, plate speed ˜6; excitation wavelength set to 320 nm and emission wavelength set to 405 nm.
A standard curve was plotted of mean RFU versus MMP-1 and MMP-9 concentration (respectively), and the line of best fit calculated by regression analysis. The unknown concentration of either active MMP-1 or MMP-9 protein in all of the samples was estimated from this.
The same methods were used as described in Example 2, except that various test agents were added to the cells during the pre-treatment period.

Q: How did the “Reduction in Interleukin-6 synthesis vs vehicle treated cells” value [1] turn out when C[C@@H]1C[C@H]2[C@@H]3CCC4=CC(=O)C=C[C@]4(C)[C@@]3(F)[C@@H](O)C[C@]2(C)[C@@]1(O)C(=O)CO [Dexamethasone] was run?
A: ~80%

Q: What about the “Level of active MMP-1” value ([2]; GC-treated neonate fibroblasts) of the same compound?
A: 15 ng/mL

Q: What about the “Suppression of MMP-1 synthesis and secretion vs control, untreated cells” value (“Suppression … vs control, untreated cells” below) ([2]; T6) of the same compound?
A: ~60%

Q: What about the “Suppression … vs control, untreated cells” value ([2]; T24) of the same compound?
A: 80%

Q: What about the “Suppression … vs control, untreated cells” value ([2]; T48) of the same compound?
A: 70%
